Experimental data: US9522908B2, “Ezrin inhibitors and methods of making and using” (Georgetown University, priority 2010, dated 2016)

Legend:
zebrafish embryos = experiment: Zebrafish embryo development assay; format: in vivo, Zebrafish (Danio rerio)
Protocol: Animals. Zebrafish (Danio rerio) were raised, maintained and crossed as described before (Westerfield, M. University of Oregon Press, Eugene. Or., 1993). Development of embryos was studied at 28° C. and staging was determined by morphological characteristics (Kimmel, C. B., et al., Dev. Dyn. 203, 253-310 (1995)).
A translation blocking anti-ezrin morpholino oligonucleotide (MO), described and validated by Link et al. (Link, V., et al., J. Cell Sci., 119, 2073-2083 (2006)), MO1, 5′-[…] (SEQ ID NO:1), was synthesized by Gene-Tools, LCC (Philomath, Oreg.). MOs were microinjected into one to four cell stage embryos.
Zebrafish embryos were arrayed, three per well, in 96-well plates. Compounds were added at 1-33 μM concentrations. Embryos were observed, and photographed, at 70% epiboly, 24-28 hours post fertilization (hpf) and 48 hpf.

[1] = system: high ezrin expressed K7M2 cells; experiment: Electric cell migration system, K7M2 cells; format: cell-based; conditions: non-toxic concentration; compared to NSC 668394
Protocol: (§1) Anti-migration potential of the embodied compounds were validated using an electric cell migration system. High ezrin expressed K7M2 cells and low ezrin expressed K12 cells were treated with non-toxic concentrations of a compound and their corresponding anti-migration activity was measured. Data is represented as the ratio of compound K7M2 anti-migration activity divided by the K12 anti-migration activity. The X-axis details the non-toxic concentration of the compound used in the study.

[2] = system: low ezrin expressed K12 cells; experiment: Electric cell migration system, K12 cells; format: cell-based; conditions: non-toxic concentration
Protocol: as §1

Row | Compound | embryos with epiboly defects at 90% epiboly stage (zebrafish embryos; 3 ng injected) [%] | embryos with epiboly defects at 90% epiboly stage (zebrafish embryos; 6 ng injected) [%] | embryos with epiboly defects at 90% epiboly stage (zebrafish embryos; 12 ng injected) [%] | anti-migratory activity on K7M2 cells [1] | effect on K12 cell line migration [2]
1 | 5′-CGCGAACATTTACTGGTTTAGG (SEQ ID NO:1) (all phosphorodiamidate morpholino (PMO)) [MO1] | 42 | 69 | 69 |  | 
2 | COc1ccc(CCNC2=CC(=O)c3cccnc3C2=O)cc1Cl [GK2-057] |  |  |  | greater anti-migratory activity | benign
